The subject of series [1] is HCC4006 NSCLC cell line. The series is described as follows: Cytotoxicity assay, HCC4006. The format is cell-based. As to conditions: Homo sapiens; HCC4006 cells. As to the method: (§1) Cell culture, imaging, and cytotoxicity assay
(§2) RPMI-1640 medium. NIH/3T3 was cultured in DMEM medium. A549 was cultured in F-12K medium. T24 were cultured in McCoy's 5A medium. All culture mediums were supplemented with 10% fetal bovine serum. The cells were incubated at 37 °C in an atmosphere containing 5% CO 2. […]
(§3) Cytotoxicity assay. All test cell lines were incubated in 96-well plates overnight at a density of 3000 cells/well. The culture medium was replaced with 200 μL of culture medium, into which the testing compound was dispersed at various concentrations (1.95 - 500 μM). After incubating for 3 days, the viable cell numbers were checked and directly counted under microscopy (10X). A minimum of 1mm×1mm area was counted from each of at least three widely separated regions of cell culture. The cell proliferation rate was calculated by the following formula: cell proliferation rate (%) = (average cell number of sample wells / average cell number of control wells) ×100%.
(§4) The intact culture medium was evaluated as a control. […]
All animal experiments were performed in compliance with the Guidelines for the Care and Use of Research Animals as established by the Stanford University Animal Studies Committee. Female athymic nude mice (nu/nu) from 4−6 weeks old were obtained from Charles River Laboratories (Boston, MA, USA) and kept under sterile conditions. 5 × 106 human lung adenocarcinoma

Series [2] has as its system HCC827 NSCLC cell line. The experiment in a line: Cytotoxicity assay, HCC827. It is filed as cell-based. As to conditions: Homo sapiens; HCC827 cells. As to the method:
as §1, §2, §3, §4

Series [3] has as its system H1693 NSCLC cell line. The experiment in a line: Cytotoxicity assay, H1693. It is filed as cell-based. The settings on record: Homo sapiens, NCI-H1693; H1693 cells. As for the experimental part:
as §1, §2, §3, §4

Series [4] has as its system A549 NSCLC cell line. The series is described as follows: Cytotoxicity assay, A549. It is filed as cell-based. The settings on record: Homo sapiens; A549 cells. As to the method: as §1, §2, §3, §4
In series [5] the test system is H1944 NSCLC cell line. The series is described as follows: Cytotoxicity assay, H1944. The format is cell-based. As to conditions: Homo sapiens, NCI-H1944; H1944 cells. As to the method:
as §1, §2, §3, §4

In series [6] the test system is human lung cancer HCC827 xenograft. The experiment in a line: HCC827 s.c. tumor model treatment. The format is in vivo, nude mice. As to the method:
HCC827 s.c. tumor model treatment and imaging
All animal experiments were performed in compliance with the Guidelines for the Care and Use of Research Animals as established by the Stanford University Animal Studies Committee. Female athymic nude mice (nu/nu) from 4−6 weeks old were obtained from Charles River Laboratories (Boston, MA, USA) and kept under sterile conditions. 5 × 106 human lung adenocarcinoma […]
(§5) HCC827 cells suspended in 150 µL of PBS were inoculated subcutaneously in the right shoulder […]
When the tumors reached ~3 mm in diameter, the tumor-bearing mice were administered i.v. with 5BMF (dissolved in 150 µL PBS, with 2 µL DMSO) at 15 mg/Kg on days 1, 3, 5, 7, 9, 11, 13, 15, 17, 19, 21. Correspondingly, untreated tumor-bearing mice serving as controls were administered i.v. with 150 µL 1× PBS pH 7.4 (with 2 µL DMSO) on the same days as the treated mice. Ten mice were used for each group. Length and width of the elliptical tumors were measured by Vernier caliper after every intravenous injection. Modified ellipsoid formula ½ (Length × Width2) was used to calculate the tumor size. The tumor growth was calculated with the ratio of final volume (FV) minus initial volume (IV) to initial volume (IV). […]
(§6) The tumor tissues and some important organs such as liver, kidney, lung, heart were isolated. After frozen, the specimens sectioned at 5-8 µm and processed for a standard hematoxylin-eosin (H&E) staining. Slides were viewed and photographed with the Nanozoomer Digital Pathology Image […]
The body weights of mice are presented as means ± standard deviation (SD) of n independent measurements. The tumor volumes are presented as means ± standard error of mean (SEM) of n independent measurements. Statistical analysis was performed using a Student’s t-test or Mann-Whitney U test. Statistical significance was assigned for P values <0.05. […]

The subject of series [7] is subcutaneous HCC827 tumor. The experiment in a line: In vivo and ex vivo fluorescence imaging of HCC827 tumor-bearing mice. Details: species or system nude mice. As for the experimental part: as §5
When the tumors reached ~3 mm in diameter, the tumor-bearing mice were administered i.v. with 5BMF (dissolved in 150 µL PBS, with 2 µL DMSO) at 15 mg/Kg on days 1, 3, 5, 7, 9, 11, 13, 15, 17, 19, 21. Correspondingly, untreated tumor-bearing mice serving as controls were administered i.v. with 150 µL 1× PBS pH 7.4 (with 2 µL DMSO) on the same days as the treated mice. Ten mice were used for each group. Length and width of the elliptical tumors were measured by Vernier caliper after every intravenous injection. Modified ellipsoid formula ½ (Length × Width2) was used to calculate the tumor size. The tumor growth was calculated with the ratio of final volume (FV) minus initial volume (IV) to initial volume (IV).
In vivo fluorescent imaging was taken 40 minutes and 2 hours after the injection of 5BMF 15 mg/kg. IVIS spectrum instrument was used. The excitation wavelength was set at 450 nm.
Collection wavelength was set at 550 nm, using a 3s acquisition time. 4 mice for each group were used. Mice were sacrificed and the organs were harvest after each set of in vivo imaging.
Fluorescent images of the organs were taken under the same settings.
as §6
The body weights of mice are presented as means ± standard deviation (SD) of n independent measurements. The tumor volumes are presented as means ± standard error of mean (SEM) of n independent measurements. Statistical analysis was performed using a Student’s t-test or Mann-Whitney U test. Statistical significance was assigned for P values <0.05.
Detail F16s Synthesis information

Series [8] is described as follows: pH stability (integrated fluorescence intensity). It is filed as physicochemical. As to conditions: pH 3.0–10.0 buffers, 24 h, 10 µM. As for the experimental part:
with 10 µM concentration). pH 3.0~7.0 buffers are sodium hydrogen phosphate and trisodium buffer; pH 7.4~10.0 buffers are phosphate buffered saline. 5BMF was put into different pH buffer with the concentration of 10 µM. 5BMF solutions were taking out at 1, 2, 3, 4, 5, 6, 7, 8, 16, 24 h time point. And their integrated fluorescent intensity (from 450 nm to 650 nm) were measured (excited at 425 nm). All data were analyzed using Origin Pro 9.0 software (OriginLab, Northampton, Massachusetts, USA).
(1 picture or pasted object on this page, not shown here)

Series [9] can be described thus: Self-assembly into nanoparticles (TEM, DLS). The format is physicochemical. As to conditions: 1× pH 7.4 PBS, 5 mM to 0.125 mM.

Here are results for one molecule from publication PMC6836573, “Mitochondria-targeting fluorescent molecules for high efficiency cancer growth inhibition and imaging” (Chemical Science, 2019).

pIC50: −log10 of the molar value. “Also recorded” adds a separate entry of the source.

Broadly, the pIC50 is −log10 of the IC50, conventionally taken in molar units. Read a high pIC50 as a low IC50.

Take `Cc1cc(Br)cc2c(/C=C/c3cc[n+](C)cc3)c[nH]c12` [5BMF]: the pIC50 is 6.97 in series [1]; 5.70 in series [2]; 5.93 in series [3]; 6.14 in series [4]; 6.58 in series [5]. In addition, the “day from which inhibitory tumor growth effects appeared” value in series [6] (15 mg/kg IV every other day) worked out at 9 days. In series [6] (15 mg/kg IV every other day, day 1-21, n = 10, PBS control ∼16 times), the “increase of mean tumor volume after the 21 day-treatment period” value is given as roughly 2 times. For the same molecule, the toxicity to mice result in [6] (15 mg/kg IV, 21 days of treatment) is given as “no obvious toxicity”. In addition, the “tumor growth compared to the PBS treated control group” value in [6] (15 mg/kg IV, 21 days, p = 0.0426 at day 21) was “significantly suppressed; also recorded: suppressed dramatically; also recorded: decreased dramatically”. Further, the “body weight between control and treated groups” value in series [6] (15 mg/kg IV, 21 days, p = 0.477) was “no significant difference”. Besides, the “major organs' histologic examination (H&E)” value in series [6] (15 mg/kg IV, over four weeks, compared to control) was “did not reveal any significant microscopic lesions”. For the same molecule, in series [6] (HCC827 tumor, 5BMF-treated), the “tumor pathologic section H&E staining” value was “caused tumor inflammatory cell infiltration, fibrous tissue proliferation, and cell apoptosis”. In series [7] (ex vivo imaging at 40 min and 2 h PI), the “accumulation in tumor, kidney, bone, stomach, bowel, pancreas and skin” value is “accumulated more 5BMF compared with the liver, spleen, heart, lung, and brain”. Further, the tumor/lung ratio in series [7] (ex vivo imaging, 2 h PI, 15 mg/kg) is given as roughly 7. The “tumor to background ratio” value in series [7] (in vivo fluorescence, 2 h post IV injection, 15 mg/kg) is on record as roughly 2. Also, the “decay in buffers of different pH” value in series [8] was “less than 20%”. Moreover, in [9], the “size of self-assembled nanoparticles” value is given as roughly 120 nm.
